This experiment concerns L1210 leukemia ip in BDF1 mice, survival T/C. Put plainly: NCI In Vivo Anticancer Drug Screen. Data for tumor model L1210 Leukemia (intraperitoneal) in B6D2F1 (BDF1) mice. As to conditions: endpoint: mean survival time, higher = longer survival. The procedure, abridged: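 Mice bearing the transplanted tumor received compound or vehicle. Survival of the treated group was divided by that of the vehicle-treated control group to give the ratio.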

Where [1] appears, read: dose: 100.0 mg/kg/injection, schedule: Q01DX001 (ip), vehicle: saline.
The mark [2] stands for this setting: dose: 200.0 mg/kg/injection, schedule: Q01DX001 (ip), vehicle: saline.
The mark [3] stands for this setting: dose: 75.0 mg/kg/injection, schedule: Q01DX001 (ip), vehicle: saline.
[4] abbreviates: dose: 150.0 mg/kg/injection, schedule: Q01DX001 (ip), vehicle: saline.
Setting [5] is: dose: 100.0 mg/kg/injection, schedule: Q01DX001 (ip), vehicle: carboxymethylcellulose (CMC).
Setting [6] is: dose: 200.0 mg/kg/injection, schedule: Q01DX001 (ip), vehicle: carboxymethylcellulose (CMC).
Setting [7] is: dose: 400.0 mg/kg/injection, schedule: Q01DX001 (ip), vehicle: carboxymethylcellulose (CMC).

Molecules are shown by their SMILES. Values joined by “and” are separate entries in the source; they are usually repeats but may differ in a detail not shown here. Equal entries are not always repeated. Inconclusive results and toxic doses are left out.

For `CCCC[As](=O)(O)C(C)C`, the T/C runs as follows: (dose: 1.56 mg/kg/injection, schedule: Q01DX009 (ip), vehicle: saline) 100 % of control; (dose: 3.12 mg/kg/injection, schedule: Q01DX009 (ip), vehicle: saline) 100 % of control; (dose: 3.12 mg/kg/injection, schedule: Q04DX003 (ip), vehicle: saline) 112 % of control; (dose: 6.25 mg/kg/injection, schedule: Q04DX002 (ip), vehicle: saline) 120 % of control; (dose: 6.25 mg/kg/injection, schedule: Q04DX003 (ip), vehicle: saline) 107 % of control; (dose: 12.5 mg/kg/injection, schedule: Q01DX001 (ip), vehicle: saline) 112 % of control. In addition, the T/C (dose: 12.5 mg/kg/injection, schedule: Q04DX002 (ip), vehicle: saline) is 110 % of control; the T/C (dose: 12.5 mg/kg/injection, schedule: Q04DX003 (ip), vehicle: saline) was 118 % of control; the T/C (dose: 25.0 mg/kg/injection, schedule: Q01DX001 (ip), vehicle: saline) is 117 % of control; the T/C (dose: 25.0 mg/kg/injection, schedule: Q01DX009 (ip), vehicle: saline) is 106 % of control and 111 % of control; the T/C (dose: 25.0 mg/kg/injection, schedule: Q04DX003 (ip), vehicle: saline) was 105 % of control; the T/C (dose: 50.0 mg/kg/injection, schedule: Q01DX001 (ip), vehicle: saline) was 103 % of control. Moreover, the T/C (dose: 50.0 mg/kg/injection, schedule: Q04DX002 (ip), vehicle: saline) is 117 % of control.

Take `C[CH2][Sn](/[CH]=C/C=C/OC)([CH2]C)[CH2]C`: the T/C runs as follows: (dose: 0.19 mg/kg/injection, schedule: Q01DX009 (ip), vehicle: saline) 99 % of control; (dose: 0.39 mg/kg/injection, schedule: Q01DX009 (ip), vehicle: saline) 94 % of control; (dose: 0.78 mg/kg/injection, schedule: Q01DX009 (ip), vehicle: saline) 99 % of control; (dose: 6.25 mg/kg/injection, schedule: Q01DX009 (ip), vehicle: saline) 94 % of control; (dose: 12.5 mg/kg/injection, schedule: Q01DX009 (ip), vehicle: saline) 97 % of control.

For `FC(F)C(F)(F)C(F)(F)C(F)(F)C(F)(F)C(F)(F)C(F)(F)F`, the T/C reads like this: under setting [1], 97 % of control; under setting [2], 100 % of control; (dose: 400.0 mg/kg/injection, schedule: Q01DX001 (ip), vehicle: saline) 95 % of control.

Turning to `CN(N=O)C(=O)Nc1c[nH]c(=O)[nH]c1=O`, the T/C by setting is: (dose: 10.0 mg/kg/injection, schedule: Q01DX Z (ip), vehicle: carboxymethylcellulose (CMC)) 172 % of control; (dose: 20.0 mg/kg/injection, schedule: Q01DX Z (ip), vehicle: carboxymethylcellulose (CMC)) 207 % of control; (dose: 27.0 mg/kg/injection, schedule: Q01DX Z (ip), vehicle: saline) 151 % of control; (dose: 40.0 mg/kg/injection, schedule: Q01DX Z (ip), vehicle: carboxymethylcellulose (CMC)) 239 % of control; (dose: 40.5 mg/kg/injection, schedule: Q01DX Z (ip), vehicle: saline) 159 % of control; (dose: 50.0 mg/kg/injection, schedule: Q01DX Z (ip), vehicle: carboxymethylcellulose (CMC)) 165 % of control and 206 % of control. In addition, the T/C runs as follows: (dose: 60.0 mg/kg/injection, schedule: Q01DX Z (ip), vehicle: carboxymethylcellulose (CMC)) 183 % of control; (dose: 60.7 mg/kg/injection, schedule: Q01DX Z (ip), vehicle: saline) 162 % of control; (dose: 80.0 mg/kg/injection, schedule: Q01DX Z (ip), vehicle: carboxymethylcellulose (CMC)) 101 % of control; (dose: 91.1 mg/kg/injection, schedule: Q01DX Z (ip), vehicle: saline) 98 % of control; (dose: 240.0 mg/kg/injection, schedule: Q01DX001 (ip), vehicle: saline) 185 % of control; (dose: 480.0 mg/kg/injection, schedule: Q01DX001 (ip), vehicle: saline) 188 % of control. The T/C (dose: 960.0 mg/kg/injection, schedule: Q01DX001 (ip), vehicle: saline) is 173 % of control.

Take `CCCC(O)c1ccc(OC)c(OC)c1` (configuration not stated): the T/C (dose: 100.0 mg/kg/injection, schedule: Q04DX002 (ip), vehicle: Klucel (hydroxypropylcellulose) (HPC)) is 97 % of control and the T/C (dose: 200.0 mg/kg/injection, schedule: Q04DX002 (ip), vehicle: Klucel (hydroxypropylcellulose) (HPC)) is 102 % of control.

On to `COC(=O)c1ccc2c(c1)NP(=O)(c1ccccc1)S2` (configuration not stated), for which the T/C is, setting by setting: under setting [3], 98 % of control; under setting [4], 104 % of control; (dose: 300.0 mg/kg/injection, schedule: Q01DX001 (ip), vehicle: saline) 98 % of control.

Regarding `OC1c2cc(Cl)ccc2-c2c(N=Cc3ccc4c(c3)OCO4)cc(Cl)cc21` (configuration not stated), the T/C is, setting by setting: under setting [5], 90 % of control; under setting [6], 90 % of control; under setting [7], 93 % of control.

Regarding `CCCCC(CCCC)(S(=O)(=O)CC)S(=O)(=O)CC`, the T/C under setting [5] is 104 % of control; the T/C (dose: 177.6 mg/kg/injection, schedule: Q01DX001 (ip), vehicle: carboxymethylcellulose (CMC)) is 94 % of control and 104 % of control; the T/C under setting [6] is 89 % of control; the T/C (dose: 266.8 mg/kg/injection, schedule: Q01DX001 (ip), vehicle: carboxymethylcellulose (CMC)) is 98 % of control and 88 % of control; the T/C (dose: 600.0 mg/kg/injection, schedule: Q01DX001 (ip), vehicle: carboxymethylcellulose (CMC)) is 98 % of control and 92 % of control.

`S=P(NCc1cccc(CNP(=S)(N2CC2)N2CC2)c1)(N1CC1)N1CC1`: the T/C runs as follows: (dose: 75.0 mg/kg/injection, schedule: Q01DX001 (ip), vehicle: carboxymethylcellulose (CMC)) 98 % of control; (dose: 150.0 mg/kg/injection, schedule: Q01DX001 (ip), vehicle: carboxymethylcellulose (CMC)) 98 % of control; (dose: 300.0 mg/kg/injection, schedule: Q01DX001 (ip), vehicle: carboxymethylcellulose (CMC)) 93 % of control.

For `N#CCC1COc2ccccc2O1` (configuration not stated), the T/C by setting is: under setting [5], 92 % of control; under setting [6], 97 % of control; under setting [7], 100 % of control.

On to `Cc1cc([N+](=O)[O-])ccn1`, for which the T/C was 94 % of control (dose: 100.0 mg/kg/injection, schedule: Q01DX009 (ip), vehicle: saline with Tween-80) and 93 % of control (dose: 200.0 mg/kg/injection, schedule: Q01DX009 (ip), vehicle: saline with Tween-80).

Consider `COc1cc(-c2nc(/C=C3\C(=O)C=Cc4ccccc43)c(O)o2)cc(OC)c1OC`, for which the T/C is, setting by setting: (dose: 100.0 mg/kg/injection, schedule: Q04DX002 (ip), vehicle: saline with Tween-80) 93 % of control; (dose: 200.0 mg/kg/injection, schedule: Q04DX002 (ip), vehicle: saline with Tween-80) 86 % of control; (dose: 400.0 mg/kg/injection, schedule: Q04DX002 (ip), vehicle: saline with Tween-80) 93 % of control.

In the case of `CC(=O)Oc1ccc2c3c(ccc2c1)CCCC3`, the T/C (dose: 50.0 mg/kg/injection, schedule: Q01DX009 (ip), vehicle: Klucel (hydroxypropylcellulose) (HPC)) is 90 % of control and the T/C (dose: 200.0 mg/kg/injection, schedule: Q01DX009 (ip), vehicle: Klucel (hydroxypropylcellulose) (HPC)) was 90 % of control.

In the case of `CCOC(=O)c1ccccn1`, the T/C was 98 % of control under setting [1] and 98 % of control under setting [2].

In the case of `CC(Br)CN1CCOCC1` (configuration not stated), the T/C under setting [1] is 103 % of control.

As for `CCCCC(=O)NC1=C(Cl)C(=O)c2ccccc2C1=O`, the T/C reads like this: under setting [3], 89 % of control; under setting [4], 90 % of control.

Consider `Cc1nc2ccc(O)cc2cc1CO`, for which the T/C reads like this: (dose: 50.0 mg/kg/injection, schedule: Q01DX009 (ip), vehicle: saline) 100 % of control; (dose: 100.0 mg/kg/injection, schedule: Q01DX009 (ip), vehicle: saline) 87 % of control; (dose: 100.0 mg/kg/injection, schedule: Q04DX003 (ip), vehicle: saline) 104 % of control; (dose: 200.0 mg/kg/injection, schedule: Q01DX009 (ip), vehicle: saline) 89 % of control; (dose: 200.0 mg/kg/injection, schedule: Q04DX003 (ip), vehicle: saline) 103 % of control; (dose: 400.0 mg/kg/injection, schedule: Q01DX009 (ip), vehicle: saline) 113 % of control. The T/C (dose: 400.0 mg/kg/injection, schedule: Q04DX003 (ip), vehicle: saline) was 109 % of control.

(Values after PubChem BioAssay AID248 (DTP/NCI, 2004).)
